“Also recorded” adds a separate entry of the source. Counter-ions that a name gives are not always drawn.
How the values were obtained:
HEK293T lysates = assay: Chemoproteomic profiling of HEK293T lysates (protein-level enrichment); assay type: biochemical, Human
Description: In lysate tryptophan probe treatment for protein-level characterization: HEK293T cell pellets were suspended in native lysis buffer (50 mM HEPES pH 7.5, 150 mM sodium chloride (NaCl), 1.5 mM MgCl2, 1 mM DTT, 0.8% NP-40, 5% glycerol, and 1x protease inhibitors (Thermo)) at 2x the pellet volume. The samples were sonicated on ice for 30 seconds at 20% amplitude with a 2 second pulse ON and 3 second pulse OFF. Cell debris was removed by centrifugation at 20,000×g for 20 minutes at 4° C. Protein concentration was determined by bicinchoninic acid (BCA) (Pierce) and diluted down to 5 mg/mL with ChemProt buffer (50 mM HEPES pH 7.5, 150 mM NaCl, 1.5 mM MgCl2, 1 mM DTT, 0.4% NP-40, and 1x protease inhibitors (Thermo). 5 mg cell lysates were treated with 100x stocks of the tryptophan probes (pyridinium salts 1a, 1b, and 2b) to generate final concentrations (0, 1, 10, and 100 μM) in 1% DMSO. Lysates were incubated for 1 hour at 4° C. followed by photo-activation at respective wavelengths for 20 minutes at 4° C. Excess probe was removed using Sephadex G-25 PD-10 desalting columns (GE Healthcare) pre-equilibrated with 50 mM HEPES pH 7.5, 150 mM NaCl, 1.5 mM MgCl2, and 0.4% NP-40. The samples were then treated with 100 μL Neutravidin resin as a 50% slurry (Peirce). The samples were incubated overnight on a rotating apparatus at R.T. The following day, the beads were transferred to a MobiCol column (Boca Scientific), washed 3× with phosphate buffered saline (PBS) containing 0.2% SDS, washed 3x with PBS, and the enriched proteins were eluted with 2×NuPAGE lithium dodecyl sulfate (LDS) containing 10 mM DTT (Pierce) and heated for 30 minutes at 55° C. The eluent was collected and subsequently treated with 20 mM iodoacetamide (Pierce) for 30 minutes at R.T. protected from light. Samples were passed through detergent removal columns (Pierce) that were pre-equilibrated with 50 mM HEPES pH 8.0. The samples were treated with 2.5 μg Trypsin/LysC (Promega) at 37° C. for 16 hours. The following day, the sample was collected and prepped for isobaric labeling with TMT reagents (Thermo) as specified by the manufacturer.
Quantitative proteomics by two-dimensional nano liquid chromatography-tandem mass spectrometry (nLC-MS/MS): For protein-level characterization, the TMT-labeled sample were reconstituted in 0.1% formic acid (FA)/2% acetonitrile for offline high-pH reversed phase separation (RP10) using a Dionex UltiMate 3000 high-performance liquid chromatography (HPLC) system with fraction collection using Chromeleon v.6.8 (Thermo) software. Separation was achieved on a Waters Xbridge C18 3.5 μm 2.1×150 mm HPLC column (Waters) using a flow rate of 250 μL min-1 and the following ternary gradient and conditions: mobile phase A=water (HPLC grade), mobile phase B=acetonitrile (HPLC grade), and mobile phase C=200 mM ammonium acetate, pH 10. Mobile phase C is held at 10% throughout gradient. Starting conditions are 89% mobile phase A and 1% mobile phase B, ramping mobile phase B to 80% over 65 min. Fractions were collected in 96-well plates at 100 see per well. Fractions were reduced down to 12 fractions, dried, and reconstituted in 0.1% FA/2% acetonitrile for nLC-MS/MS. All data were acquired using a Orbitrap Fusion Lumos coupled to an Easy-nLC 1200 nanoflow liquid chromatograph operating at 300 nL min^−1. Peptides were cleaned up using a 1 cm online custom trap then eluted on a custom 20 cm laser pulled 75 μm column with C18 resin. Peptides were quantified using the synchronous precursor selection (SPS-MS3) or HCD method for TMT quantitation with 120k MS1 resolving power, 50 ms max injection time and 100% AGC. MS2 spectra were selected using the top ten most abundant features with a charge state between 2-6 using CID (collision induced dissociation) in the ion trap. The AGC was set to 100% with an isolation width of 0.7. MS3 was performed on the top 10 most abundant MS2 features between 400-1600 amu with a collision energy of 55%, AGC of 250%, and 50k resolution. […]

[1] = biological target: T1, recombinant NPM1 C-terminal domain (residues 240-294) (Homo sapiens, UniProt P06748); assay: In vitro NPM1 C-terminal domain labeling (Western); assay type: biochemical
T1 construct: made in house; host or cells: NiCo21(DE3) E. coli
From the text: NPM1 Construct design: NPM1 residues 240-294 corresponding to the C-terminal DNA binding domain were fused to a combined 6×His-maltose binding protein (MBP) solubility tag on the N-terminus. An HRV 3C protease cleavage sequence (LEVLFQ/GP) was placed between the tags and NPM1 sequence and upon cleavage the remaining GP sequence corresponds to the NPM1 240-241 residues resulting in a natural peptide sequence without additional residues.
In vitro NPM1 C-terminal domain labeling and characterization: Labeling of recombinant NPM1 with the pyridinium salt 2b was performed with the following conditions: 10 μM NPM1 was treated with DMSO or 100 μM pyridinium salt 2b (2% DMSO) in 50 mM HEPES pH 7.5, 150 mM NaCl, 1.5 mM MgCl2, and 100 μM glutathione (GSH). Samples were irradiated at 450 nm (Kessil PR160L-440) at 100% intensity for 15 minutes at room temperature or 50° C. The reaction mixture was quenched with the addition of 4X LDS buffer (Invitrogen) containing 10 mM DTT (Pierce) and boiled for 10 minutes before resolving proteins on 4-12% Bis-Tris NuPAGE gels (Invitrogen), transferred onto a Trans-Blot Turbo Mini 0.2 μm nitrocellulose membrane (BioRad), blocked with 5% BSA in tris-buffered saline with Tween-20 (TBST), and incubated with HRP-linked anti-biotin (Cell Signaling Technology, #7075).

T1 sequence (P06748 240-294): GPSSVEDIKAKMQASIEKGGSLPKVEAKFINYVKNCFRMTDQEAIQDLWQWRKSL

Structure (SMILES): COc1ccc2cc(-c3cc(C)[n+](N(C)C(=O)OCCCCC[C@H]4SC[C@H]5NC(=O)N[C@H]54)c(C)c3)ccc2c1 (stereo in doubt) [Pyridinium salt 2b, 4-(6-methoxynaphthalen-2-yl)-2,6-dimethyl-1-(methyl(((5-((3aR,4R,6aS)-2-oxohexahydro-1H-thieno[3,4-d]imidazol-4-yl)pentyl)oxy)carbonyl)amino)pyridin-1-ium tetrafluoroborate]
- proteome labeling profile, streptavidin-HRP Western blot of elution profiles (HEK293T lysates; 0-100 μM probe, with and without irradiation, before digestion): concentration and optically dependent proteome labeling profiles; also recorded: dose-response profiles
- number of proteins identified (from ≥2 unique peptides) with ≥2-fold enrichment versus DMSO (HEK293T lysates; about 100 μM probe, 60 min incubation, 20 min irradiation (302 nm 1a, 320 nm 1b, 440 nm 2b)): 523 proteins
- percentage of unique enriched proteins (HEK293T lysates; comparison of proteome coverage of probes 1a, 1b, 2b at 100 μM): about 69%
- reactivity in the absence of photoirradiation (HEK293T lysates; enrichment profiles with and without photoirradiation): thermal inertness
- labeling of the construct (Western analysis) ([1]; 10 μM NPM1, 100 μM probe, 100 μM glutathione, about 440 nm, about 15 minutes): photo-dependent labeling
- temperature dependence of labeling ([1]; labeling at about 50° C. versus room temperature): higher level of labeling

Source: patent US20240262844A1, “PYRIDINIUM SALTS AND METHODS OF USE” (UNIVERSITY OF WYOMING, priority 2023, published 2024)
